Source: patent US7786137B2, “Bicyclic derivatives as modulators of ion channels” (Vertex Pharmaceuticals Incorporated, priority 2005, dated 2010)

Target: NaV1.3 (Homo sapiens, UniProt Q9NY46)
Assay: VIPR optical membrane potential assay, NaV1.3 inhibition
Assay type: cell-based
Set-up: expressed in transfected cells; host or cells: HEK293
Conditions: activity against NaV 1.3 channel
Procedure: Antagonist properties of test compounds were assessed as follows. Cells expressing the NaV of interest were placed into microtiter plates. After an incubation period, the cells were stained with fluorescent dyes sensitive to the transmembrane potential. The test compounds were added to the microtiter plate. The cells were stimulated with either a chemical or electrical means to evoke a NaV dependent membrane potential change from unblocked channels, which was detected and measured with trans-membrane potential-sensitive dyes. Antagonists were detected as a decreased membrane potential response to the stimulus.
The following is an example of how NaV1.3 inhibition activity is measured using the optical membrane potential method#2. Other subtypes are performed in an analogous mode in a cell line expressing the NaV of interest.
HEK293 cells stably expressing NaV1.3 are plated into 96-well microtiter plates. After an appropriate incubation period, the cells are stained with the voltage sensitive dyes CC2-DMPE/DiSBAC2(3) as follows.
2× CC2-DMPE=20 μM CC2-DMPE: 10 mM CC2-DMPE is vortexed with an equivalent volume of 10% pluronic, followed by vortexing in required amount of HBSS containing 10 mM HEPES. Each cell plate will require 5 mL of 2× CC2-DMPE. 50 μL of 2× CC2-DMPE is to wells containing washed cells, resulting in a 10 μM final staining concentration. The cells are stained for 30 minutes in the dark at RT.
2× DISBAC2(3) with ABSC1=6 μM DISBAC2(3) and 1 mM ABSC1: The required amount of 10 mM DISBAC2(3) is added to a 50 ml conical tube and mixed with 1 μL 10% pluronic for each mL of solution to be made and vortexed together. Then HBSS/HEPES is added to make up 2× solution. Finally, the ABSC1 is added.
The 2× DiSBAC2(3) solution can be used to solvate compound plates. Note that compound plates are made at 2× drug concentration. Wash stained plate again, leaving residual volume of 50 μL. Add 50 μL/well of the 2× DiSBAC2(3) w/ABSC1. Stain for 30 minutes in the dark at RT.
The instrument comprises a microtiter plate handler, an optical system for exciting the coumarin dye while simultaneously recording the coumarin and oxonol emissions, a waveform generator, a current- or voltage-controlled amplifier, and a device for inserting electrodes in well. Under integrated computer control, this instrument passes user-programmed electrical stimulus protocols to cells within the wells of the microfilter plate.
Insert or use electrodes into each well to be assayed.
Use the current-controlled amplifier to deliver stimulation wave pulses for 3 s. Two seconds of pre-stimulus recording are performed to obtain the un-stimulated intensities. Five seconds of post-stimulation recording are performed to examine the relaxation to the resting state.
Data are analyzed and reported as normalized ratios of background-subtracted emission intensities measured in the 460 nm and 580 nm channels. Background intensities are then subtracted from each assay channel. Background intensities are obtained by measuring the emission intensities during the same time periods from identically treated assay wells in which there are no cells. The response as a function of time is then reported as the ratios obtained using the following formula: […]
The data is further reduced by calculating the initial (Ri) and final (Rf) ratios. These are the average ratio values during part or all of the pre-stimulation period, and during sample points during the stimulation period. The response to the stimulus ? =Rf/Ri is then calculated.
Control responses are obtained by performing assays in the presence of a compound with the desired properties (positive control), such as tetracaine, and in the absence of pharmacological agents (negative control). Responses to the negative (N) and positive (P) controls are calculated as above. The compound antagonist activity A is defined as:
[formula] where R is the ratio response of the test compound.

Sequence of NaV1.3 (Q9NY46 whole entry): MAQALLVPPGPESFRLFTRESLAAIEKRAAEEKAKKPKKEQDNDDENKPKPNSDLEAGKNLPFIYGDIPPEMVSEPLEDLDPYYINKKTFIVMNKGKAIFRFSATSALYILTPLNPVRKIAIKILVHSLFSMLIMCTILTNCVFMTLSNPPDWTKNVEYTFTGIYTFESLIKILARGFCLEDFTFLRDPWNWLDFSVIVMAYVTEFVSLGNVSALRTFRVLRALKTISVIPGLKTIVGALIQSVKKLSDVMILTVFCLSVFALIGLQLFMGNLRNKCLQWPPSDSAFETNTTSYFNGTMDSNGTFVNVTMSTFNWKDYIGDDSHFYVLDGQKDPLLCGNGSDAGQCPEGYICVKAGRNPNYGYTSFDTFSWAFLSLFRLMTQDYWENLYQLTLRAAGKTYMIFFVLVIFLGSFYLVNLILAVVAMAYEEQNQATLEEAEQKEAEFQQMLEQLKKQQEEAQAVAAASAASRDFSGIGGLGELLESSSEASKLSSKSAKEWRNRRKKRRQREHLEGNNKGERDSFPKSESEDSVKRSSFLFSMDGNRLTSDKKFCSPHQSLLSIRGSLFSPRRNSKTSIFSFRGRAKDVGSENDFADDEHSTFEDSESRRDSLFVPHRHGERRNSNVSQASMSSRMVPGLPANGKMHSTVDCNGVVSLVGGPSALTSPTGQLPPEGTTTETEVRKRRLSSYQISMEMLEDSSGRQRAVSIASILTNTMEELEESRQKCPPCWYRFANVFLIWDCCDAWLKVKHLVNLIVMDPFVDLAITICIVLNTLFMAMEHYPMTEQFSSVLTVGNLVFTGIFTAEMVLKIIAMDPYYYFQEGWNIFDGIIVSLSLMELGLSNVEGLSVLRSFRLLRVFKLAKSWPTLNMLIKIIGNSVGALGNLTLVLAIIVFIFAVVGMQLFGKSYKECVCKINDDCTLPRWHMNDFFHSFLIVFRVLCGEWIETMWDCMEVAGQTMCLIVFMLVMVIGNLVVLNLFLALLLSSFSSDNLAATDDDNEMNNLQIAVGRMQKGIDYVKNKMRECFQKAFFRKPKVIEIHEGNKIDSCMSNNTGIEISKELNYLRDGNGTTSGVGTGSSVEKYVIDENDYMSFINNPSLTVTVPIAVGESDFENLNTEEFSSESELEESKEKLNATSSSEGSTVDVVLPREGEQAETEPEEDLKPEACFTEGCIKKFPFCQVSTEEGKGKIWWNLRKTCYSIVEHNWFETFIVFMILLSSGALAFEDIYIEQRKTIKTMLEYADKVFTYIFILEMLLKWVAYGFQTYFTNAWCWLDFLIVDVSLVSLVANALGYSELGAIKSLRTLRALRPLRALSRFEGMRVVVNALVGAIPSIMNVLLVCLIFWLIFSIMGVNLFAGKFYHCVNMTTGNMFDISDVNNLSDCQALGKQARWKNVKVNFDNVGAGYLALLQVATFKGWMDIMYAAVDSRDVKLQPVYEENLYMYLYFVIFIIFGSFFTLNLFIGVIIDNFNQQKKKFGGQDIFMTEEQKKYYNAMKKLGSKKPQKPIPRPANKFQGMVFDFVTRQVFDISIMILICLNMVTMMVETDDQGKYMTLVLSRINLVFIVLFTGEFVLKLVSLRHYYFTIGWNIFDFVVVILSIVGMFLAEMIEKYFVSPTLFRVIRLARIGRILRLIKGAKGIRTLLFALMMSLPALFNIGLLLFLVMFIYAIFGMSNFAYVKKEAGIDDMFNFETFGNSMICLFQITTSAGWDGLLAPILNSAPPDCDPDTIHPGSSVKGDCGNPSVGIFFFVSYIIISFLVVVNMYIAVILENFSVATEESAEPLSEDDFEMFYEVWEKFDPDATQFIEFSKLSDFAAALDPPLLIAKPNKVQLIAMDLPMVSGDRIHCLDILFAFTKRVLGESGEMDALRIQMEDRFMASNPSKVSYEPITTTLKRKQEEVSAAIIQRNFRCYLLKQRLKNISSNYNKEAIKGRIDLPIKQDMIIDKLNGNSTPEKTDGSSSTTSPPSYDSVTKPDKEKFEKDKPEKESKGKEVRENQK

Row | SMILES | IC50 [nM]
1 | O=C(COc1cccc(Cl)c1Cl)N1CCc2cc(S(=O)(=O)Nc3nccs3)ccc21 [Compound 67] | < 2000
2 | O=C(CNc1ccc(C(F)(F)F)cc1)N1CCc2cc(S(=O)(=O)Nc3nccs3)ccc21 [Compound 68] | 2000 to 5000
3 | O=C(Cn1ccc2cccc(Cl)c21)N1CCc2ccc(S(=O)(=O)Nc3nccs3)cc2C1 [Compound 69] | > 5000
4 | O=C(c1cc(F)ccc1F)N1CCCc2cc(S(=O)(=O)Nc3nccs3)ccc21 [Compound 70] | > 5000
5 | O=C(COc1ccnc2c(C(F)(F)F)cccc12)N1CCc2cc(S(=O)(=O)Nc3ncns3)ccc21 [Compound 71] | < 2000
6 | O=C(COc1ccccc1)N1CCCc2cc(S(=O)(=O)Nc3ncns3)ccc21 [Compound 72] | > 5000
7 | O=C(c1ccc(F)cc1F)N1CCc2ccc(S(=O)(=O)Nc3nccs3)cc2C1 [Compound 73] | > 5000
8 | O=C(c1cc(F)ccc1F)N1CCc2ccc(S(=O)(=O)Nc3nccs3)cc2C1 [Compound 74] | > 5000
9 | CC1CCCN(CC(=O)N2CCc3cc(S(=O)(=O)Nc4nccs4)ccc32)C1 (stereo not shown) [Compound 75] | > 5000
10 | O=C(c1c(F)cc(F)cc1F)N1CCCc2cc(S(=O)(=O)Nc3nccs3)ccc21 [Compound 76] | > 5000
11 | Cc1ccc(OCC(=O)N2CCc3cc(S(=O)(=O)Nc4nccs4)ccc32)cc1C [Compound 79] | < 2000
12 | COc1ccc(OC(=O)N2CCc3cc(S(=O)(=O)Nc4nccs4)ccc32)cc1 [Compound 80] | > 5000
13 | Cc1ccc(C(=O)N2CCc3cc(S(=O)(=O)Nc4nccs4)ccc32)cc1Cl [Compound 82] | < 2000
14 | COc1ccc(F)cc1C(=O)N1CCc2cc(S(=O)(=O)Nc3nccs3)ccc21 [Compound 83] | 2000 to 5000
15 | O=C(COc1ccc(OC(F)(F)F)cc1)N1Cc2ccc(S(=O)(=O)Nc3nccs3)cc2C1 [Compound 84] | < 2000
16 | CC1CN(CC(=O)N2CCc3cc(S(=O)(=O)Nc4nccs4)ccc32)CC(C)O1 (stereo not shown) [Compound 85] | > 5000
17 | O=C(c1cccc(Cl)c1)n1ccc2cc(S(=O)(=O)Nc3nccs3)ccc21 [Compound 86] | < 2000
18 | C[C@H](C(=O)N1CCc2cc(S(=O)(=O)Nc3nccs3)ccc21)n1ccc2ccccc21 [Compound 87] | < 2000
19 | O=C(c1ccc(Cl)c(Cl)c1)N1CCc2cc(S(=O)(=O)Nc3ncns3)ccc21 [Compound 89] | < 2000
20 | O=C(c1ccc(Cl)c(Cl)c1)N1CCc2cc(S(=O)(=O)Nc3nccs3)ccc21 [Compound 90] | < 2000

Row | SMILES | IC50 [nM]
21 | CC(Oc1cccc(Cl)c1)C(=O)N1CCc2cc(S(=O)(=O)Nc3nccs3)ccc21 (stereo not shown) [Compound 91] | < 2000
22 | C[C@H](C(=O)N1CCc2cc(S(=O)(=O)Nc3ncns3)ccc21)n1ccc2c(F)cccc21 [Compound 93] | < 2000
23 | C[C@H](C(=O)N1Cc2ccc(S(=O)(=O)Nc3ncns3)cc2C1)n1ccc2c(F)cccc21 [Compound 94] | < 2000
24 | O=C(c1ccc(F)cc1F)N1CCCc2cc(S(=O)(=O)Nc3nccs3)ccc21 [Compound 95] | > 5000
25 | O=C(c1ccccc1F)N1CCCc2cc(S(=O)(=O)Nc3nccs3)ccc21 [Compound 96] | > 5000
26 | Cc1ccc(OCC(=O)N2CCc3cc(S(=O)(=O)Nc4ncns4)ccc32)cc1C [Compound 97] | < 2000
27 | Cc1nnc(NS(=O)(=O)c2ccc3c(c2)CN(C(=O)[C@@H](C)N2CCCc4cc(Cl)ccc42)C3)s1 [Compound 98] | 2000 to 5000
28 | Cc1ccccc1CNCCN1CCc2cc(S(=O)(=O)Nc3nccs3)ccc21 [Compound 99] | > 5000
29 | COc1ccc(NCCN2CCc3cc(S(=O)(=O)Nc4nccs4)ccc32)cc1 [Compound 100] | > 5000
30 | O=C(CN1CCCc2ccccc21)N1CCCc2cc(S(=O)(=O)Nc3nccs3)ccc21 [Compound 101] | > 5000
31 | O=C(ON1Cc2ccc(S(=O)(=O)Nc3nccs3)cc2C1)c1ccc(Cl)cc1 [Compound 102] | < 2000
32 | O=C(c1ccccc1Cl)n1ccc2cc(S(=O)(=O)Nc3nccs3)ccc21 [Compound 103] | 2000 to 5000
33 | O=C(CNC1CCCCC1)N1CCc2cc(S(=O)(=O)Nc3nccs3)ccc21 [Compound 104] | > 5000
34 | CCc1nnc(NS(=O)(=O)c2ccc3c(c2)CN(C(=O)[C@@H](C)n2ccc4c(F)cccc42)C3)s1 [Compound 105] | 2000 to 5000
35 | O=C(Oc1cccc(C(F)(F)F)c1)N1CCc2cc(S(=O)(=O)Nc3nccs3)ccc21 [Compound 106] | 2000 to 5000
36 | Cc1ccccc1CC(=O)N1CCc2cc(S(=O)(=O)Nc3nccs3)ccc21 [Compound 107] | < 2000
37 | COc1cc(NCC(=O)N2CCc3cc(S(=O)(=O)Nc4nccs4)ccc32)cc(OC)c1 [Compound 108] | > 5000
38 | O=C(c1cc(Cl)ccc1Cl)N1CCc2cc(S(=O)(=O)Nc3nccs3)ccc21 [Compound 109] | < 2000
39 | COc1ccc(F)cc1C(=O)n1ccc2cc(S(=O)(=O)Nc3nccs3)ccc21 [Compound 110] | 2000 to 5000
40 | O=C(COc1cccc(Cl)c1)N1CCCc2cc(S(=O)(=O)Nc3nccs3)ccc21 [Compound 111] | < 2000

Row | SMILES | IC50 [nM]
41 | O=C(COc1ccccc1)N1CCc2cc(S(=O)(=O)Nc3nccs3)ccc21 [Compound 112] | < 2000
42 | O=C(COc1ccccc1)N1CCCc2cc(S(=O)(=O)Nc3nccs3)ccc21 [Compound 113] | 2000 to 5000
43 | O=C(c1ccc(F)cc1)N1CCCc2cc(S(=O)(=O)Nc3nccs3)ccc21 [Compound 114] | > 5000
44 | O=C(COc1ccc(F)cc1)N1Cc2ccc(S(=O)(=O)Nc3nccs3)cc2C1 [Compound 115] | < 2000
45 | O=C(c1ccc(Cl)cc1Cl)N1CCc2cc(S(=O)(=O)Nc3nccs3)ccc21 [Compound 116] | < 2000
46 | O=C(Oc1ccc(Cl)cc1)N1CCc2cc(S(=O)(=O)Nc3nccs3)ccc21 [Compound 117] | > 5000
47 | O=C(c1ccc(F)cc1F)N1CCc2cc(S(=O)(=O)Nc3ncns3)ccc21 [Compound 118] | > 5000
48 | O=C(c1ccc(F)cc1)N1CCc2ccc(S(=O)(=O)Nc3nccs3)cc2C1 [Compound 119] | > 5000
49 | O=C(CN1CCCc2cc(Cl)ccc21)N1Cc2ccc(S(=O)(=O)Nc3ncns3)cc2C1 [Compound 120] | < 2000
50 | O=C(CCn1ccc2cc(Cl)ccc21)N1CCc2ccc(S(=O)(=O)Nc3nccs3)cc2C1 [Compound 121] | < 2000
51 | O=C(COc1ccnc2c(C(F)(F)F)cccc12)N1Cc2ccc(S(=O)(=O)Nc3ncns3)cc2C1 [Compound 122] | < 2000
52 | O=C(c1ccccc1F)N1CCc2ccc(S(=O)(=O)Nc3nccs3)cc2C1 [Compound 123] | 2000 to 5000
53 | C[C@@H](C(=O)N1Cc2ccc(S(=O)(=O)Nc3ncns3)cc2C1)n1ccc2c(F)cccc21 [Compound 124] | < 2000
54 | CC(Oc1ccccc1)C(=O)N1CCc2cc(S(=O)(=O)Nc3ncns3)ccc21 (stereo not shown) [Compound 125] | < 2000
55 | O=C(c1ccc(Cl)c(Cl)c1)n1ccc2cc(S(=O)(=O)Nc3nccs3)ccc21 [Compound 126] | 2000 to 5000
56 | O=C(CCn1ccc2cc(Cl)ccc21)N1Cc2ccc(S(=O)(=O)Nc3ncns3)cc2C1 [Compound 127] | < 2000
57 | Cc1ccc(C(=O)n2ccc3cc(S(=O)(=O)Nc4nccs4)ccc32)cc1F [Compound 128] | < 2000
58 | O=C(COc1cccnc1)N1CCc2cc(S(=O)(=O)Nc3nccs3)ccc21 [Compound 129] | > 5000
